In ChEMBL document CHEMBL1201862, “PubChem BioAssay data set” (2004):
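Step 1: Grow cells in 96-well plates. Step 2: Expose to compound for 48 hours at 5 concentrations. Step 3: Interpolate endpoints linearly; if unreached, use highest concentration. GI50 marks 50% less growth.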 Active and inactive are the calls of the source. Cut-off read from the data, not from the text of the source: active = GI50 up to about 1.1 µM and inactive = higher.

Experiments:
Assay in all cases: growth of human tumour cells (NCI), 48 h
SR = system: SR
Malme-3M = system: Malme-3M
T47D = system: T47D
SF-539 = system: SF-539
MDA-MB-435 = system: MDA-MB-435
HCT-15 = system: HCT-15
UO-31 = system: UO-31
M14 = system: M14
UACC-257 = system: UACC-257
SK-MEL-5 = system: SK-MEL-5
SF-295 = system: SF-295
HOP-62 = system: HOP-62
BT-549 = system: BT-549
NCI-H460 = system: NCI-H460
CAKI-1 = system: CAKI-1
MCF7 = system: MCF7
HCT-116 = system: HCT-116
786-0 = system: 786-0
A549 = system: A549
SNB-75 = system: SNB-75
IGROV-1 = system: IGROV-1
OVCAR-3 = system: OVCAR-3
SN12C = system: SN12C
NCI-H23 = system: NCI-H23
SNB-19 = system: SNB-19
NCI-H522 = system: NCI-H522
HT-29 = system: HT-29
SF-268 = system: SF-268
SK-MEL-28 = system: SK-MEL-28
ACHN = system: ACHN
SK-OV-3 = system: SK-OV-3
MDA-N = system: MDA-N
NCI/ADR-RES = system: NCI/ADR-RES
UACC-62 = system: UACC-62
LOX IMVI = system: LOX IMVI
SW-620 = system: SW-620
TK-10 = system: TK-10
COLO 205 = system: COLO 205
NCI-H226 = system: NCI-H226
MOLT-4 = system: MOLT-4
OVCAR-4 = system: OVCAR-4
EKVX = system: EKVX
RPMI-8226 = system: RPMI-8226
Hs-578T = system: Hs-578T
HOP-92 = system: HOP-92
MDA-MB-231 = system: MDA-MB-231
OVCAR-8 = system: OVCAR-8
DU-145 = system: DU-145
PC-3 = system: PC-3
KM12 = system: KM12
U-251 = system: U-251
HL-60 = system: HL-60
SK-MEL-2 = system: SK-MEL-2
K562 = system: K562
A498 = system: A498
RXF 393 = system: RXF 393
CCRF-CEM = system: CCRF-CEM

## O=[N+]([O-])c1ccc(-c2nc3cc(Cl)ccc3[nH]2)cc1
SR
  GI50: 34.6 µM (inactive)
Malme-3M
  GI50: > 100 µM (inactive)
T47D
  GI50: 39.1 µM (inactive)
SF-539
  GI50: 54.6 µM (inactive)
MDA-MB-435
  GI50: 41.6 µM (inactive)
HCT-15
  GI50: 52 µM
UO-31
  GI50: 26.1 µM (inactive)
M14
  GI50: 60.7 µM (inactive)
UACC-257
  GI50: 76 µM (inactive)
SK-MEL-5
  GI50: 51.4 µM (inactive)
SF-295
  GI50: 39.2 µM (inactive)
HOP-62
  GI50: > 100 µM (inactive)
BT-549
  GI50: 99.1 µM (inactive)
NCI-H460
  GI50: 37.2 µM (inactive)
CAKI-1
  GI50: 62.7 µM (inactive)
MCF7
  GI50: 27.3 µM (inactive)
HCT-116
  GI50: 49.2 µM (inactive)
786-0
  GI50: 86.7 µM (inactive)
A549
  GI50: 42.3 µM (inactive)
SNB-75
  GI50: 73.5 µM (inactive)
IGROV-1
  GI50: 81.3 µM (inactive)
OVCAR-3
  GI50: 45.1 µM (inactive)
SN12C
  GI50: 43.6 µM (inactive)
NCI-H23
  GI50: 42.5 µM (inactive)
SNB-19
  GI50: 78.5 µM (inactive)
NCI-H522
  GI50: 14.4 µM (inactive)
HT-29
  GI50: 51.4 µM (inactive)
SF-268
  GI50: > 100 µM (inactive)
SK-MEL-28
  GI50: > 100 µM (inactive)
ACHN
  GI50: 50.1 µM (inactive)
SK-OV-3
  GI50: > 100 µM (inactive)
MDA-N
  GI50: 39.7 µM (inactive)
NCI/ADR-RES
  GI50: 31.3 µM (inactive)
UACC-62
  GI50: 81.1 µM (inactive)
LOX IMVI
  GI50: 46.2 µM (inactive)
SW-620
  GI50: 62.4 µM (inactive)
TK-10
  GI50: > 100 µM (inactive)
COLO 205
  GI50: 32.9 µM (inactive)
NCI-H226
  GI50: 82.6 µM (inactive)
MOLT-4
  GI50: 64 µM (inactive)
OVCAR-4
  GI50: 95.5 µM (inactive)
EKVX
  GI50: 69.5 µM (inactive)
RPMI-8226
  GI50: 25.5 µM (inactive)
Hs-578T
  GI50: > 100 µM (inactive)
HOP-92
  GI50: 46.7 µM (inactive)
MDA-MB-231
  GI50: > 100 µM (inactive)
OVCAR-8
  GI50: 59.6 µM (inactive)
DU-145
  GI50: 72.1 µM (inactive)
PC-3
  GI50: 32.7 µM (inactive)

## CC(C)=CCC1=C(OCC(=O)O)C(=O)c2ccccc2C1=O
SR
  GI50: 34.3 µM (inactive)
Malme-3M
  GI50: 19.3 µM (inactive)
T47D
  GI50: 31.5 µM (inactive)
SF-539
  GI50: 27.2 µM (inactive)
MDA-MB-435
  GI50: 15.5 µM (inactive)
KM12
  GI50: 25.2 µM (inactive)
HCT-15
  GI50: 39.4 µM
UO-31
  GI50: 28 µM (inactive)
M14
  GI50: 33 µM (inactive)
UACC-257
  GI50: 29.1 µM (inactive)
SK-MEL-5
  GI50: 19.5 µM (inactive)
SF-295
  GI50: 11.9 µM (inactive)
HOP-62
  GI50: 40.9 µM (inactive)
BT-549
  GI50: 29.9 µM (inactive)
NCI-H460
  GI50: 34.5 µM (inactive)
CAKI-1
  GI50: 52.5 µM (inactive)
U-251
  GI50: 30.3 µM (inactive)
MCF7
  GI50: 25.1 µM (inactive)
HCT-116
  GI50: 22.6 µM (inactive)
786-0
  GI50: 41.1 µM (inactive)
A549
  GI50: 30.8 µM (inactive)
SNB-75
  GI50: 24.4 µM (inactive)
IGROV-1
  GI50: 39.1 µM (inactive)
SN12C
  GI50: 24.5 µM (inactive)
NCI-H23
  GI50: 33 µM (inactive)
SNB-19
  GI50: 27.9 µM (inactive)
NCI-H522
  GI50: 23.6 µM (inactive)
HT-29
  GI50: 47.2 µM (inactive)
HL-60
  GI50: 14.5 µM (inactive)
SF-268
  GI50: 22.3 µM (inactive)
SK-MEL-28
  GI50: 35 µM (inactive)
SK-MEL-2
  GI50: 25.7 µM (inactive)
K562
  GI50: 33 µM (inactive)
ACHN
  GI50: 39.4 µM (inactive)
A498
  GI50: 76.7 µM (inactive)
SK-OV-3
  GI50: 67.9 µM (inactive)
MDA-N
  GI50: 17.9 µM (inactive)
NCI/ADR-RES
  GI50: 32.1 µM (inactive)
UACC-62
  GI50: 19 µM (inactive)
LOX IMVI
  GI50: 32.6 µM (inactive)
SW-620
  GI50: 23 µM (inactive)
TK-10
  GI50: > 100 µM (inactive)
COLO 205
  GI50: 60.3 µM (inactive)
NCI-H226
  GI50: 32.4 µM (inactive)
MOLT-4
  GI50: 15.9 µM (inactive)
OVCAR-4
  GI50: 31.9 µM (inactive)
RXF 393
  GI50: 31.9 µM (inactive)
EKVX
  GI50: 37.1 µM (inactive)
RPMI-8226
  GI50: 24.1 µM (inactive)
Hs-578T
  GI50: 22.2 µM (inactive)
HOP-92
  GI50: 47.4 µM (inactive)
MDA-MB-231
  GI50: 49.8 µM (inactive)
OVCAR-8
  GI50: 38.5 µM (inactive)
DU-145
  GI50: 33.5 µM (inactive)
CCRF-CEM
  GI50: 23.9 µM (inactive)
PC-3
  GI50: 31.3 µM (inactive)
